Tests used:
[1] = biological target: T1, human Cereblon WT GST-tagged protein (Homo sapiens, UniProt Q96SW2); test: CRBN-binding affinity, HTRF (CEREBLON BINDING kit); settings: for inhibition at 0.5 µM: read-out: Inhibition Rate at 0.5 µM (%); for inhibition at 2 µM: read-out: Inhibition Rate at 2 µM (%)
T1 construct: purchased CISBIO 64BDCRBNPEH

[2] = system: GSPT1; test: Western blot, degradation of substrate protein in hPBMCs; type: cell-based, Human; settings: Western blot, 24 hours of compound treatment, compounds tested at 50 nM and 500 nM (concentration for the table not stated)
[3] = biological target: T2, IKZF2 (Homo sapiens, UniProt Q96SW2+Q9UKS7); test: as above; type: cell-based; settings: Western blot, 24 hours of compound treatment, compounds tested at 50 nM and 500 nM (concentration for the table not stated)
T2 construct: effects of the compounds of the present disclosure on the expression of target proteins in cells; endogenous in cells; host or cells: human PBMCs (Milecell Biotechnologies)
T2 sequence (Q9UKS7 whole entry): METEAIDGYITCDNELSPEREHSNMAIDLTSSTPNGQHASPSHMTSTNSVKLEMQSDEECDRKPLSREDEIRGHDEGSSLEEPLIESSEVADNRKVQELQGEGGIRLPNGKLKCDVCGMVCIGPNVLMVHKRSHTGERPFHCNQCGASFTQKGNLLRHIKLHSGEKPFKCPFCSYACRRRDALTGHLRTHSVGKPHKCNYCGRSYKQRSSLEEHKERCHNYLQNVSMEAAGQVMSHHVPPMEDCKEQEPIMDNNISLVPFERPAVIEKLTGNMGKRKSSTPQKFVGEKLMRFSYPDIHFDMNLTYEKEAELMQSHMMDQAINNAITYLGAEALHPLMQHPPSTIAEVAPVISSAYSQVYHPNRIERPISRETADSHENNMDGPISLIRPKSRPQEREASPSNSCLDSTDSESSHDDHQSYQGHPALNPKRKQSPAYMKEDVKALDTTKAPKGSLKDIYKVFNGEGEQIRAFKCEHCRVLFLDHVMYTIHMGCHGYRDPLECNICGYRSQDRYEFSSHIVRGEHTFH
T2 sequence (Q96SW2 whole entry): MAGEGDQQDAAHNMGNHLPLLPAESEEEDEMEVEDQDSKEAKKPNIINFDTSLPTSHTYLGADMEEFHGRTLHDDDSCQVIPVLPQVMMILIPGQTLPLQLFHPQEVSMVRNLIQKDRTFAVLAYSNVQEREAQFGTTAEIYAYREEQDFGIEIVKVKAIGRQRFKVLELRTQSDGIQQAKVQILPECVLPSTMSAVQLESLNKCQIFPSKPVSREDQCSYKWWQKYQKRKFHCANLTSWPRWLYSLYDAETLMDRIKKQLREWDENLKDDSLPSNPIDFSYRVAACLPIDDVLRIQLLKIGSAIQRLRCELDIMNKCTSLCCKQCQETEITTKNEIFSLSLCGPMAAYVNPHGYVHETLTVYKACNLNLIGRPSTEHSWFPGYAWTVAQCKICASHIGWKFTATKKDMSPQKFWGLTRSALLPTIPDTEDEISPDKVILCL
T2 sequence (Q16531 whole entry partner): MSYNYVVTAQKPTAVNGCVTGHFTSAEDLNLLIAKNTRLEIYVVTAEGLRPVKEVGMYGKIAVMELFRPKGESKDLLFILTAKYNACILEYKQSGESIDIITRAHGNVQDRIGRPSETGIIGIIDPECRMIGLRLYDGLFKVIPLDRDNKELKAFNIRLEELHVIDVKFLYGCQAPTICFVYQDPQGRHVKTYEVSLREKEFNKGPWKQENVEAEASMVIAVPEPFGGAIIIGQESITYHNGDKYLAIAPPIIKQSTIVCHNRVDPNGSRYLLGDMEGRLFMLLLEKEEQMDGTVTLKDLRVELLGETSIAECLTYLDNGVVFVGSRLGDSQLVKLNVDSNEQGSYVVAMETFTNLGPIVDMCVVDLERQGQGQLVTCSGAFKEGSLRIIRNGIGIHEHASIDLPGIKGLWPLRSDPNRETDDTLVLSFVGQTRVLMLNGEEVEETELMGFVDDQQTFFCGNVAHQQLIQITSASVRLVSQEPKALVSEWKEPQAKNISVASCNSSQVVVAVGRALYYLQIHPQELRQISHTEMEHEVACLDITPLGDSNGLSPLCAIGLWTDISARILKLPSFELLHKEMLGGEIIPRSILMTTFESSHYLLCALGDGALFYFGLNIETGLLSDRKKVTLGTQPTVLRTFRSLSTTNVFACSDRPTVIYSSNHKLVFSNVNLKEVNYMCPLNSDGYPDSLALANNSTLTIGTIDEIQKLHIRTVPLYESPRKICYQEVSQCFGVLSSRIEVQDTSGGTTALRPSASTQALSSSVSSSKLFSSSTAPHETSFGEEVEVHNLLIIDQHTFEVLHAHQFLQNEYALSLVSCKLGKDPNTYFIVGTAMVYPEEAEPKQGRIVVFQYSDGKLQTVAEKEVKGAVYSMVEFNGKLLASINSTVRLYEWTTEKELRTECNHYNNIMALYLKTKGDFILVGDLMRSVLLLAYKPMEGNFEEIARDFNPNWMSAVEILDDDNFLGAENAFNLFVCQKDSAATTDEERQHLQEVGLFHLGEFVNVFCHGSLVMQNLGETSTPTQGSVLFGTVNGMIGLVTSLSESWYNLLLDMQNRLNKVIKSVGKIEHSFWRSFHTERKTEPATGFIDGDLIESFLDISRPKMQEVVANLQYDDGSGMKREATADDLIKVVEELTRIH

[4] = biological target: T3, IKZF1 (Homo sapiens, UniProt Q13422+Q96SW2); test: as above; type: cell-based; settings: Western blot, 24 hours of compound treatment, compounds tested at 50 nM and 500 nM (concentration for the table not stated)
T3 construct: effects of the compounds of the present disclosure on the expression of target proteins in cells; endogenous in cells; host or cells: human PBMCs (Milecell Biotechnologies)
T3 sequence (Q13422 whole entry): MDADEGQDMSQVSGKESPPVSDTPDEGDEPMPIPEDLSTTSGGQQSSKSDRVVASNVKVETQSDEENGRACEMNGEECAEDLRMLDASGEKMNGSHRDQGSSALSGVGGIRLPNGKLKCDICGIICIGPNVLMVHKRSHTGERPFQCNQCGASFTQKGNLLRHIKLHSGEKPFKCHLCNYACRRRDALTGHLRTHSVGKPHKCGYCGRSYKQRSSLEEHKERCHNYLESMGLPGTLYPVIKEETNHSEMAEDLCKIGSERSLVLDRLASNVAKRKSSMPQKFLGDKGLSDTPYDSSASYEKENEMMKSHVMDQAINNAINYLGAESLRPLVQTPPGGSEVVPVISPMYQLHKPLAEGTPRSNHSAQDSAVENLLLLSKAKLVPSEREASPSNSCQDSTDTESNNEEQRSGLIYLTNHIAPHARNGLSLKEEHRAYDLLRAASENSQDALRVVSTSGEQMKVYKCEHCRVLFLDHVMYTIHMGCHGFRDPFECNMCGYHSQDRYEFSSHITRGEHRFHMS
T3 sequence (Q96SW2 whole entry): as the sequence (Q96SW2 whole entry) above
T3 sequence (Q16531 whole entry partner): as the sequence (Q16531 whole entry partner) above

[5] = biological target: T4, WEE1 (Homo sapiens, UniProt P30291+Q96SW2); test: as above; type: cell-based; settings: Western blot, 24 hours of compound treatment, compounds tested at 50 nM and 500 nM (concentration for the table not stated)
T4 construct: effects of the compounds of the present disclosure on the expression of target proteins in cells; endogenous in cells; host or cells: human PBMCs (Milecell Biotechnologies)
T4 sequence (P30291 whole entry): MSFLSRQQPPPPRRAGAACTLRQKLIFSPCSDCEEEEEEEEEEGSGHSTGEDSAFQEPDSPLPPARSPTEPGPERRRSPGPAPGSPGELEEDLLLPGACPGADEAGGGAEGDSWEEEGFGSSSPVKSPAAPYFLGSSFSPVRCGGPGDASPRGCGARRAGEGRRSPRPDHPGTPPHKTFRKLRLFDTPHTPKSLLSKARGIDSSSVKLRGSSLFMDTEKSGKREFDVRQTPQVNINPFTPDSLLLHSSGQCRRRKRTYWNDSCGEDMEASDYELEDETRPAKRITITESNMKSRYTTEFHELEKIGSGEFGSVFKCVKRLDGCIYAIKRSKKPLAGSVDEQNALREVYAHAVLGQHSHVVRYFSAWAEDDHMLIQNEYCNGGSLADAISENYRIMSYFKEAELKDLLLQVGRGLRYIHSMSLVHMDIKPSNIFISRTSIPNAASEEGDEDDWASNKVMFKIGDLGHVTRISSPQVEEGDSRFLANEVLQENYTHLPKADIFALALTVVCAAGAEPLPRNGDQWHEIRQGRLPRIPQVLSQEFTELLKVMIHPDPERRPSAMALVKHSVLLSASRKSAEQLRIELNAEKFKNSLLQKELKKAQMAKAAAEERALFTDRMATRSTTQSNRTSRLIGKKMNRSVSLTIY
T4 sequence (Q96SW2 whole entry): as the sequence (Q96SW2 whole entry) above
T4 sequence (Q16531 whole entry partner): as the sequence (Q16531 whole entry partner) above

[6] = biological target: T5, IKZF3 (Homo sapiens, UniProt Q96SW2+Q9UKT9); test: as above; type: cell-based; settings: Western blot, 24 hours of compound treatment, compounds tested at 50 nM and 500 nM (concentration for the table not stated)
T5 construct: effects of the compounds of the present disclosure on the expression of target proteins in cells; endogenous in cells; host or cells: human PBMCs (Milecell Biotechnologies)
T5 sequence (Q9UKT9 whole entry): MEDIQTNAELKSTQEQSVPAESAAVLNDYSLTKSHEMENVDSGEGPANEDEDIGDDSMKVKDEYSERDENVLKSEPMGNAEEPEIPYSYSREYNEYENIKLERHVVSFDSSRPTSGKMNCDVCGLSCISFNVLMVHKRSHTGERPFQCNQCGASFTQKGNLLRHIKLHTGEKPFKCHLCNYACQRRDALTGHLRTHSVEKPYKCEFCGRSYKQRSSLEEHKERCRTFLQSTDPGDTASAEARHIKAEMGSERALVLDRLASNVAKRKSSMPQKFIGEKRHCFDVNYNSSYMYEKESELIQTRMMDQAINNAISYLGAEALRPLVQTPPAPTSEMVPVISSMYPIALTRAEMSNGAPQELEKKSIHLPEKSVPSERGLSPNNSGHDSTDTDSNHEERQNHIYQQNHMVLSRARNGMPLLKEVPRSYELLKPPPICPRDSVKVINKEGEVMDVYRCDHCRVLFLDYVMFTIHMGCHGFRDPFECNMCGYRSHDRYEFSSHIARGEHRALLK
T5 sequence (Q96SW2 whole entry): as the sequence (Q96SW2 whole entry) above
T5 sequence (Q16531 whole entry partner): as the sequence (Q16531 whole entry partner) above

[7] = biological target: T6, CK1α (Homo sapiens, UniProt P48729+Q96SW2); test: as above; type: cell-based; settings: Western blot, 24 hours of compound treatment, compounds tested at 50 nM and 500 nM (concentration for the table not stated)
T6 construct: effects of the compounds of the present disclosure on the expression of target proteins in cells; endogenous in cells; host or cells: human PBMCs (Milecell Biotechnologies)
T6 sequence (P48729 whole entry): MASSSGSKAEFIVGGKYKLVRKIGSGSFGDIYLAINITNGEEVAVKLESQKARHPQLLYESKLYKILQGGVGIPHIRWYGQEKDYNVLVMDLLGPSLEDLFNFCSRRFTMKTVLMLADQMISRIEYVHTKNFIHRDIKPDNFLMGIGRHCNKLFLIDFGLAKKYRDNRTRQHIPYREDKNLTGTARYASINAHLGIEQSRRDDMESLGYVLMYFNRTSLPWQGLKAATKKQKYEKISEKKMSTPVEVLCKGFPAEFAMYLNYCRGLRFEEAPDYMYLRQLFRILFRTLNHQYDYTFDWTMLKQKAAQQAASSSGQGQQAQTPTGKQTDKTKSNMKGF
T6 sequence (Q96SW2 whole entry): as the sequence (Q96SW2 whole entry) above
T6 sequence (Q16531 whole entry partner): as the sequence (Q16531 whole entry partner) above

T1 sequence (Q96SW2 whole entry): as the sequence (Q96SW2 whole entry) above

| inhibition at 0.5 µM [1] [%] | inhibition at 2 µM [1] [%] | Compound | GSPT1 substrate protein remaining % [2] | IKZF2 substrate protein remaining % [3] | IKZF 1 substrate protein remaining % [4] | Wee1 substrate protein remaining % [5] | IKZF3 substrate protein remaining % [6] | CK1α substrate protein remaining % [7] |
| --- | --- | --- | --- | --- | --- | --- | --- | --- |
| 40 to 53 | 80 to 100 | O=C1CCC(N2Cc3c(CN4CCCN(c5cccc(Cl)c5Cl)CC4)cccc3C2=S)C(=O)N1 (stereo not drawn) [GT-08472, 3-(4-((4-(2,3-dichlorophenyl)-1,4-diazepan-1-yl)methyl)-1-thioxoisoindolin-2-yl)piperidine-2,6-dione] | A (0% ≤ substrate protein remaining % ≤ 80%) | B (80%< substrate protein remaining %≤ 100%) | B (80%< substrate protein remaining %≤ 100%) | B (80%< substrate protein remaining %≤ 100%) | B (80%< substrate protein remaining %≤ 100%) | B (80%< substrate protein remaining %≤ 100%) |
| 60 to 80 | 80 to 100 | O=C1CCC(N2Cc3cc(CN4CCC(c5ccnc(Cl)c5Cl)CC4)ccc3C2=S)C(=O)N1 (stereo not drawn) [GT-08475, 3-(5-((4-(2,3-dichloropyridin-4-yl)piperidin-1-yl)methyl)-1-thioxoisoindolin-2-yl)piperidine-2,6-dione] | A (0% ≤ substrate protein remaining % ≤ 80%) | B (80%< substrate protein remaining %≤ 100%) | B (80%< substrate protein remaining %≤ 100%) | B (80%< substrate protein remaining %≤ 100%) | B (80%< substrate protein remaining %≤ 100%) | B (80%< substrate protein remaining %≤ 100%) |
| 40 to 53 | 80 to 100 | Cn1cc(C2=CCN(Cc3cccc4c3CN(C3CCC(=O)NC3=O)C4=S)CC2)c2ccc(F)cc21 (stereo not drawn) [GT-08493, 3-(4-((4-(6-fluoro-1-methyl-1H-indol-3-yl)-3,6-dihydropyridin-1(2H)-yl)methyl)-1-thioxoisoindolin-2-yl)piperidine-2,6-dione] | A (0% ≤ substrate protein remaining % ≤ 80%) | A (0% ≤ substrate protein remaining % ≤ 80%) | B (80%< substrate protein remaining %≤ 100%) | B (80%< substrate protein remaining %≤ 100%) | B (80%< substrate protein remaining %≤ 100%) | B (80%< substrate protein remaining %≤ 100%) |
| 53 to 60 | 60 to 80 | COc1ccc(N2CCN(Cc3cccc4c3CN(C3CCC(=O)NC3=O)C4=S)CC2)cc1 (stereo not drawn) [GT-08495, 3-(4-((4-(4-methoxyphenyl)piperazin-1-yl)methyl)-1-thioxoisoindolin-2-yl)piperidine-2,6-dione] | A (0% ≤ substrate protein remaining % ≤ 80%) | A (0% ≤ substrate protein remaining % ≤ 80%) | A (0% ≤ substrate protein remaining % ≤ 80%) | A (0% ≤ substrate protein remaining % ≤ 80%) | B (80%< substrate protein remaining %≤ 100%) | B (80%< substrate protein remaining %≤ 100%) |
| 40 to 53 | 80 to 100 | O=C1CCC(N2Cc3c(CN4CCN(c5ccc(Br)cc5)CC4)cccc3C2=S)C(=O)N1 (stereo not drawn) [GT-08496, 3-(4-((4-(4-bromophenyl)piperazin-1-yl)methyl)-1-thioxoisoindolin-2-yl)piperidine-2,6-dione] | A (0% ≤ substrate protein remaining % ≤ 80%) | A (0% ≤ substrate protein remaining % ≤ 80%) | A (0% ≤ substrate protein remaining % ≤ 80%) | A (0% ≤ substrate protein remaining % ≤ 80%) | B (80%< substrate protein remaining %≤ 100%) | B (80%< substrate protein remaining %≤ 100%) |
| 40 to 53 | 60 to 80 | Cc1cccc(N2CCN(Cc3cccc4c3CN(C3CCC(=O)NC3=O)C4=S)CC2)c1 (stereo not drawn) [GT-08498, 3-(1-thioxo-4-((4-(m-tolyl)piperazin-1-yl)methyl)isoindolin-2-yl)piperidine-2,6-dione] | A (0% ≤ substrate protein remaining % ≤ 80%) | A (0% ≤ substrate protein remaining % ≤ 80%) | B (80%< substrate protein remaining %≤ 100%) | A (0% ≤ substrate protein remaining % ≤ 80%) | B (80%< substrate protein remaining %≤ 100%) | B (80%< substrate protein remaining %≤ 100%) |
| 30 to 40 | 53 to 60 | Cc1ccc(N2CCN(Cc3cccc4c3CN(C3CCC(=O)NC3=O)C4=S)CC2)cc1 (stereo not drawn) [GT-08499, 3-(1-thioxo-4-((4-(p-tolyl)piperazin-1-yl)methyl)isoindolin-2-yl)piperidine-2,6-dione] | A (0% ≤ substrate protein remaining % ≤ 80%) | A (0% ≤ substrate protein remaining % ≤ 80%) | B (80%< substrate protein remaining %≤ 100%) | A (0% ≤ substrate protein remaining % ≤ 80%) | B (80%< substrate protein remaining %≤ 100%) | B (80%< substrate protein remaining %≤ 100%) |
| 40 to 53 | 60 to 80 | O=C1CCC(N2Cc3c(CN4CCN(c5ccc(Cl)c(Cl)c5)CC4)cccc3C2=S)C(=O)N1 (stereo not drawn) [GT-08502, 3-(4-((4-(3,4-dichlorophenyl)piperazin-1-yl)methyl)-1-thioxoisoindolin-2-yl)piperidine-2,6-dione] | A (0% ≤ substrate protein remaining % ≤ 80%) | A (0% ≤ substrate protein remaining % ≤ 80%) | B (80%< substrate protein remaining %≤ 100%) | A (0% ≤ substrate protein remaining % ≤ 80%) | B (80%< substrate protein remaining %≤ 100%) | B (80%< substrate protein remaining %≤ 100%) |

| Compound | inhibition at 0.5 µM [1] [%] | inhibition at 2 µM [1] [%] | GSPT1 substrate protein remaining % [2] | IKZF2 substrate protein remaining % [3] | IKZF 1 substrate protein remaining % [4] | Wee1 substrate protein remaining % [5] | IKZF3 substrate protein remaining % [6] | CK1α substrate protein remaining % [7] |
| --- | --- | --- | --- | --- | --- | --- | --- | --- |
| O=C1CCC(N2Cc3c(CN4CC5CCC(C4)N5c4cccc(Cl)c4Cl)cccc3C2=S)C(=O)N1 (stereo not drawn) [GT-08470, 3-(4-((8-(2,3-dichlorophenyl)-3,8-diazabicyclo[3.2.1]octan-3-yl)methyl)-1-thioxoisoindolin-2-yl)piperidine-2,6-dione] | 20 to 30 | 53 to 60 | A (0% ≤ substrate protein remaining % ≤ 80%) | B (80%< substrate protein remaining %≤ 100%) | B (80%< substrate protein remaining %≤ 100%) | B (80%< substrate protein remaining %≤ 100%) | B (80%< substrate protein remaining %≤ 100%) | B (80%< substrate protein remaining %≤ 100%) |
| O=C1CCC(N2Cc3cc(CN4CC=C(c5ccnc(F)c5F)CC4)ccc3C2=S)C(=O)N1 (stereo not drawn) [GT-08474, 3-(5-((2',3'-difluoro-3,6-dihydro-[4,4'-bipyridin]-1(2H)-yl)methyl)-1-thioxoisoindolin-2-yl)piperidine-2,6-dione] | 80 to 100 | 80 to 100 | A (0% ≤ substrate protein remaining % ≤ 80%) | B (80%< substrate protein remaining %≤ 100%) | B (80%< substrate protein remaining %≤ 100%) | B (80%< substrate protein remaining %≤ 100%) | B (80%< substrate protein remaining %≤ 100%) | B (80%< substrate protein remaining %≤ 100%) |
| O=C1CCC(N2Cc3cc(CN4CC5CCC(C4)N5c4cccc(Cl)c4Cl)ccc3C2=S)C(=O)N1 (stereo not drawn) [GT-08479, 3-(5-((8-(2,3-dichlorophenyl)-3,8-diazabicyclo[3.2.1]octan-3-yl)methyl)-1-thioxoisoindolin-2-yl)piperidine-2,6-dione] | 40 to 53 | 60 to 80 | A (0% ≤ substrate protein remaining % ≤ 80%) | B (80%< substrate protein remaining %≤ 100%) | B (80%< substrate protein remaining %≤ 100%) | B (80%< substrate protein remaining %≤ 100%) | B (80%< substrate protein remaining %≤ 100%) | B (80%< substrate protein remaining %≤ 100%) |
| O=C1CCC(N2Cc3c(CN4CC=C(c5c[nH]c6ncccc56)CC4)cccc3C2=S)C(=O)N1 (stereo not drawn) [GT-08494, 3-(4-((4-(1H-pyrrolo[2,3-b]pyridin-3-yl)-3,6-dihydropyridin-1(2H)-yl)methyl)-1-thioxoisoindolin-2-yl)piperidine-2,6-dione] | 60 to 80 | 80 to 100 | B (80%< substrate protein remaining %≤ 100%) | A (0% ≤ substrate protein remaining % ≤ 80%) | A (0% ≤ substrate protein remaining % ≤ 80%) | A (0% ≤ substrate protein remaining % ≤ 80%) | B (80%< substrate protein remaining %≤ 100%) | B (80%< substrate protein remaining %≤ 100%) |
